Data on 16 compounds can be found in patent publication US20220226337A1 (Gilead Sciences, Inc., priority 2018, published 2022).

As usually defined, the EC50 is the concentration at which the effect is half-maximal.

The test concerns the target T1, α4β7 integrin interaction with MadCAM-1 (RPMI8866 cells) (Homo sapiens, UniProt P13612+P26010).
T1 construct: α4β7 integrin expressing cells; endogenous in cells; host or cells: RPMI8866 cells
T1 sequence (P13612 34-1032): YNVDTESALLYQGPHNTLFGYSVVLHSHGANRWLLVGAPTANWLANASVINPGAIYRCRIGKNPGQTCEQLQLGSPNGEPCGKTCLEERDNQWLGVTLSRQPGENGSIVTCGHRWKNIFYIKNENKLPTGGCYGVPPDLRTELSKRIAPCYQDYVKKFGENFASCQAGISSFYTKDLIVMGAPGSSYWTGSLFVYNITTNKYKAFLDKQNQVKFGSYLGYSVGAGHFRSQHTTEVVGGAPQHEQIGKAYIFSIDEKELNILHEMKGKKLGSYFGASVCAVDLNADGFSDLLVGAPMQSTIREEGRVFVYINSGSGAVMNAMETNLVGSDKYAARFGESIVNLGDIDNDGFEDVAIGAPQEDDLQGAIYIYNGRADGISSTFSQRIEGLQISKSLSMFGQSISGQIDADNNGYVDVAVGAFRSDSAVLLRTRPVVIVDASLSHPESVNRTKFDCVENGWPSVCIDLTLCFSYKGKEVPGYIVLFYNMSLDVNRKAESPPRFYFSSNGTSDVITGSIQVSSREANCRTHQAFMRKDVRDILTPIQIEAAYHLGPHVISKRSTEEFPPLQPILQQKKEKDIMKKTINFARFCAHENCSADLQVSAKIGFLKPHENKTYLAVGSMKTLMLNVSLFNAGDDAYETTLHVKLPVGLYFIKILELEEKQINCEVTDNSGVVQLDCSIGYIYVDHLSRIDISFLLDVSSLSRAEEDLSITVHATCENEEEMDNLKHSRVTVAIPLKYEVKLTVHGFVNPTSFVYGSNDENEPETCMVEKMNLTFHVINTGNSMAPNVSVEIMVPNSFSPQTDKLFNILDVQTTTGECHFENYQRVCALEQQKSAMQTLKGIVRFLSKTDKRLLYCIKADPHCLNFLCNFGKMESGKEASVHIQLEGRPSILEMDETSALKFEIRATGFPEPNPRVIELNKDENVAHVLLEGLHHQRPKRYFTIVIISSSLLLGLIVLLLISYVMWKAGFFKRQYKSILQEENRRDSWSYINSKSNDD
T1 sequence (P26010 20-798): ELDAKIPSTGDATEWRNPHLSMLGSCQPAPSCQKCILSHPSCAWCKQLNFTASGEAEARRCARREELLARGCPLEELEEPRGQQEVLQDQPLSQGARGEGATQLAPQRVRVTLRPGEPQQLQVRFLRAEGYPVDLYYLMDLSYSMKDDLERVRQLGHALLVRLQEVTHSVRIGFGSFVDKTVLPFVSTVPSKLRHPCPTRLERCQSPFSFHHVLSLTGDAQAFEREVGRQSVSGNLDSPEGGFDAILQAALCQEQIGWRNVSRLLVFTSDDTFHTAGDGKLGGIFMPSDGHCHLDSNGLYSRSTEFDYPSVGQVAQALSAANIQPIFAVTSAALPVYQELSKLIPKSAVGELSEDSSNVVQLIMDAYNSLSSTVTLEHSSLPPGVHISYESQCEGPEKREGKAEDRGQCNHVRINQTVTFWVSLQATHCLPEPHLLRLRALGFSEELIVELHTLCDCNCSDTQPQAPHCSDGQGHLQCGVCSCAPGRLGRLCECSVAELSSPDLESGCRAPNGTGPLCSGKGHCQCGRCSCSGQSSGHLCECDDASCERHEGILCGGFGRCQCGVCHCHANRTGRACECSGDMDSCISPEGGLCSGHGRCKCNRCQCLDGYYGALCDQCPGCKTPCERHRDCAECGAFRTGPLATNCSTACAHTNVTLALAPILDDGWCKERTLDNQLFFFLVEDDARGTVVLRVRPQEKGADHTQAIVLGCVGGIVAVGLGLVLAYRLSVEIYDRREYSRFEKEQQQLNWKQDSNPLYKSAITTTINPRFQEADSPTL
The test is described as follows: α4β7 Integrin Cell Capture Assay. The format is cell-based. Conditions: capture of α4β7 integrin expressing RPMI8866 cells on recombinant MadCAM-1 extracellular domain-coated plate; 0.5 mM MnCl2. In a few lines:
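RPMI8866 cells (0.5×10^6 cells/mL in DMEM + 0.5% FBS + 0.5 mM MnCl2) preincubated with compound 1 h at 37 °C, then allowed to adhere 30 min at 37 °C to plates coated with MAdCAM-1 extracellular domain (1.0 μg/mL). Bound cells fixed with 2% glutaraldehyde, Hoechst-stained, imaged and counted; EC50 from cell count versus concentration.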
For the compound `Cc1nc(-c2ccc(C[C@H](NC(=O)c3c(F)cc(N4CCOC[C@@H]4C(F)(F)F)cc3F)C(=O)O)c3c2C[C@H](O)C3)c(=O)n(C)c1C` [Example 191], the EC50 is 0.371 nM.

In the case of `Cc1nc(-c2ccc(C[C@H](NC(=O)c3c(F)cc(N4CCOC[C@@H]4C(F)(F)F)cc3F)C(=O)O)c3c2C[C@@H](O)C3)c(=O)n(C)c1C` [Example 192], the EC50 turned out to be 0.228 nM.

On to `Cc1nc(-c2ccc(C[C@H](NC(=O)c3c(F)cc(N4CCOC[C@@H]4C(F)(F)F)cc3F)C(=O)O)c3c2CCC3)c(=O)n(C)c1C` [Example 193], for which the half-maximal effective concentration (EC50) turned out to be 0.264 nM.

Take `Cc1cc(N2CCOC[C@@H]2C(F)(F)F)cc(F)c1C(=O)N[C@@H](Cc1ccc(-c2c(C)nc(C)n(C)c2=O)c2c1CCC2)C(=O)O` [Example 194]: the half-maximal effective concentration (EC50) is 0.099 nM.

As for `Cc1cc(C)n(C)c(=O)c1-c1ccc(C[C@H](NC(=O)c2c(F)cc(N3CCOC[C@@H]3C(F)(F)F)cc2F)C(=O)O)c2c1CCC2` [Example 195], the half-maximal effective concentration (EC50) amounted to 0.198 nM.

`Cc1cc(N2CCOC[C@@H]2C(F)(F)F)cc(F)c1C(=O)N[C@@H](Cc1ccc(-c2c(C)c(C(F)(F)F)cn(C)c2=O)c2c1CCC2)C(=O)O` [Example 196]: the EC50 turned out to be 0.264 nM.

With `Cc1nc(-c2ccc(C[C@H](NC(=O)c3c(F)cc(N4CCOC[C@@H]4C(F)(F)F)cc3F)C(=O)O)c3c2CC(O)C3)c(=O)n(C)c1C` (stereo partly shown) [Example 197], the EC50 stood at 0.308 nM.

For `COc1cc(C)n(C)c(=O)c1-c1ccc(C[C@H](NC(=O)c2c(C)cc(N3CCOC[C@@H]3C(F)(F)F)cc2F)C(=O)O)c2c1CCC2` [Example 198], the EC50 turned out to be 0.081 nM.

For the compound `Cc1cc(N2CCOC[C@@H]2C(F)(F)F)cc(F)c1C(=O)N[C@@H](Cc1ccc(-c2nc(C)c(C)n(C)c2=O)c2c1CCC2)C(=O)O` [Example 199], the EC50 worked out at 0.19 nM.

As for `Cc1cc(N2CCOC[C@@H]2C(F)(F)F)cc(F)c1C(=O)N[C@@H](Cc1ccc(-c2c(C(F)(F)F)cc(C)n(C)c2=O)c2c1CCC2)C(=O)O` [Example 200], the EC50 was found to be 0.083 nM.

Consider `CC[C@@H](Nc1cc(F)c(C(=O)N[C@@H](Cc2ccc(-c3c(C(F)(F)F)cc(C)n(C)c3=O)c3c2CCC3)C(=O)O)c(F)c1)C(F)(F)F` [Example 201], for which the concentration for a half-maximal effect (EC50) stood at 0.63 nM.

For `Cc1cc(C(F)(F)F)c(-c2ccc(C[C@H](NC(=O)c3c(F)cc(N4CCOC[C@@H]4C(F)(F)F)cc3F)C(=O)O)c3c2CCC3)c(=O)n1C` [Example 202], the EC50 is 0.144 nM.

With `Cc1cc(C(F)(F)F)c(-c2ccc(C[C@H](NC(=O)c3c(F)cc(N4CCOC[C@@H]4C(F)(F)F)cc3F)C(=O)O)c3c2CCN(C)C3)c(=O)n1C` [Example 203], the EC50 turned out to be 0.36 nM.

Take `CC[C@@H](Nc1cc(F)c(C(=O)N[C@@H](Cc2ccc(-c3c(C(F)(F)F)cc(C)n(C)c3=O)c3c2CN(C)CC3)C(=O)O)c(F)c1)C(F)(F)F` [Example 204]: the concentration for a half-maximal effect (EC50) is 1.34 nM.

In the case of `Cc1nc(-c2ccc(C[C@H](NC(=O)c3c(F)cc(N4CCOC[C@@H]4C(F)(F)F)cc3F)C(=O)O)c3c2CN(C)C3)c(=O)n(C)c1C` [Example 205], the half-maximal effective concentration (EC50) was determined as 1.27 nM.

For the compound “(S)-2-(2,6-difluoro-4-(((R)-1,1,1-trifluorobutan-2-yl)amino)benzamido)-3-(7-(1,4-dimethyl-2-oxo-5-(trifluoromethyl)-1,2-dihydropyridin-3-yl)-1,3-dihydroisobenzofuran-4-yl)propanoic acid [Example 25]”, the EC50 was determined as 2.85 nM.
